Laboratory results taken from patent publication US20260070945A1, “MACROCYCLIC IMMUNOMODULATORS” (Bristol-Myers Squibb Company, priority 2022, published 2026).
Where a SMILES comes first, the peptide text is derived from it. Bridges are numbered along the chain shown (N, C = ends). [ ]: non-standard residue; d: D form. The star is where a group is joined. Phe(3-CF3) = N[C@@H](Cc1cccc(C(F)(F)F)c1)C(=O)O; Phe(4-CF3) = N[C@@H](Cc1ccc(C(F)(F)F)cc1)C(=O)O; Ala(morpholin-4-yl) = N[C@@H](CN1CCOCC1)C(=O)O; Phe(4-COOH) = N[C@@H](Cc1ccc(C(=O)O)cc1)C(=O)O; Bip = N[C@@H](Cc1ccc(-c2ccccc2)cc1)C(=O)O; Phe(3-Me) = Cc1cccc(C[C@H](N)C(=O)O)c1; NH(CH2)12COOH = O=C(O)CCCCCCCCCCCCN*; Val(3-OH) = CC(C)(O)[C@H](N)C(=O)O; 4Pal = N[C@@H](Cc1ccncc1)C(=O)O; 2Thi = N[C@@H](Cc1cccs1)C(=O)O; Cha = N[C@@H](CC1CCCCC1)C(=O)O; NMeNle = CCCC[C@H](NC)C(=O)O; dCba = N[C@H](CC1CCC1)C(=O)O; hSer = N[C@@H](CCO)C(=O)O; Carboxymethyl = O=C(O)C*; NMeA = CN[C@@H](C)C(=O)O; Orn = NCCC[C@H](N)C(=O)O; Aun = NCCCCCCCCCCC(=O)O; Dab = NCC[C@H](N)C(=O)O; Nva = CCC[C@H](N)C(=O)O; Dap = NC[C@H](N)C(=O)O; AEEA = NCCOCCOCC(=O)O

Biological target: T1, PD-1/PD-L1 interaction (PE-labeled human PD-L1-Ig binding to Jurkat cell line over-expressing human PD-1) (Homo sapiens, UniProt Q15116)
T1 construct: expressed in transfected cells; host or cells: Jurkat
Assay: Jurkat-PD-1 Cell Binding High-Content Screening Assay (CBA)
Settings: Jurkat-hPD-1 cells, PE-labeled PD-L1-Ig 20 nM final; read-out: Jurkat HPD1 PDL1 IC50
Outline: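 In this imaging assay, cells in 10% FCS medium see compound for 2 h at 37 °C and then labeled ligand at 20 nM final for 1 h. Paraformaldehyde fixation, Hoechst 33342 staining and dPBS washes precede image capture.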

T1 sequence (Q15116 25-288): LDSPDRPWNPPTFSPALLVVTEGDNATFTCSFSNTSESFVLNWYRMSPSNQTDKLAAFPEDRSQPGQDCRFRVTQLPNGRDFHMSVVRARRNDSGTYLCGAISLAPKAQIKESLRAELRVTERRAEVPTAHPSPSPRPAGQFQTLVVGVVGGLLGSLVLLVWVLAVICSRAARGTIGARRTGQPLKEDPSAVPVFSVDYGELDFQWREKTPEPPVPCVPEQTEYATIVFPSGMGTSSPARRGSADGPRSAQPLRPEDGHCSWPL

Row | IC50 [nM] | Compound
1 | 29.5 | CC(C)C[C@@H]1NC(=O)[C@H](Cc2c[nH]c3ccccc23)NC(=O)[C@H](CC(=O)O)NC(=O)[C@H](Cc2ccc(C(=O)O)cc2)NC(=O)[C@H](Cc2ccc(OCC(=O)O)cc2)NC(=O)CSC[C@@H](C(=O)N[C@@H](CCCN)C(=O)NCCOCCOCC(=O)NCCCCCCCCCCC(=O)O)NC(=O)[C@H](CO)NC(=O)[C@H](C(C)C)NC(=O)[C@H](CC2CCCCC2)NC(=O)[C@H](CCN)NC(=O)[C@@H](CC2CCC2)NC(=O)[C@H](C)N(C)C(=O)[C@H](C(C)C)NC(=O)[C@H](Cc2ccc(-c3ccccc3)cc2)NC1=O [Example 1249] ({CH2CO}-Y(Carboxymethyl)[Phe(4-COOH)]DWL[Bip]V[NMeA][dCba][Dab][Cha]VSC[Orn][AEEA][Aun]-OH; thioether N-14)
2 | 3.8 | CC(C)C[C@@H]1NC(=O)[C@H](Cc2c[nH]c3ccccc23)NC(=O)[C@H](CC(=O)O)NC(=O)[C@H](Cc2ccc(C(=O)O)cc2)NC(=O)[C@H](Cc2ccc(OCC(=O)O)cc2)NC(=O)CSC[C@@H](C(=O)N[C@@H](CCN)C(=O)NCCOCCOCC(=O)NCCCCCCCCCCC(=O)O)NC(=O)[C@H](CCN)NC(=O)[C@H](C(C)(C)O)NC(=O)[C@H](CC2CCCCC2)NC(=O)[C@H](CCN)NC(=O)[C@@H](CC(C)C)NC(=O)[C@H](C)N(C)C(=O)[C@H](C(C)C)NC(=O)[C@H](Cc2ccc(-c3ccccc3)cc2)NC1=O [Example 1127] ({CH2CO}-Y(Carboxymethyl)[Phe(4-COOH)]DWL[Bip]V[NMeA][dL][Dab][Cha][Val(3-OH)][Dab]C[Dab][AEEA][Aun]-OH; thioether N-14)
3 | 97.7 | Cc1cccc(C[C@@H]2NC(=O)[C@H](CC(=O)O)NC(=O)[C@H](Cc3ccc(OCC(=O)O)cc3)NC(=O)[C@H](CN)NC(=O)CSC[C@@H](C(=O)NCCOCCOCC(=O)NCCCCCCCCCCC(=O)O)NC(=O)[C@H](CCCN)NC(=O)[C@H](C(C)C)NC(=O)[C@H](CC3CCCCC3)NC(=O)[C@H](CCN)NC(=O)[C@@H](CC(C)C)NC(=O)[C@H](C)N(C)C(=O)[C@H](Cc3ccc(O)cc3)NC(=O)[C@H](Cc3ccc(-c4ccccc4)cc3)NC(=O)[C@H](Cc3ccc(O)cc3)NC2=O)c1 [Example 1316] ({CH2CO}-[Dap]Y(Carboxymethyl)D[Phe(3-Me)]Y[Bip]Y[NMeA][dL][Dab][Cha]V[Orn]C[AEEA][Aun]-OH; thioether N-14)
4 | 11.8 | CC(C)C[C@H]1NC(=O)[C@H](C)N(C)C(=O)[C@H](CCC(N)=O)NC(=O)[C@H](Cc2ccc(-c3ccccc3)cc2)NC(=O)[C@H](Cc2ccc(C(=O)O)cc2)NC(=O)[C@H](Cc2cccc(C(F)(F)F)c2)NC(=O)[C@H](CC(=O)O)NC(=O)[C@H](Cc2ccc(OCC(=O)O)cc2)NC(=O)[C@H](CN2CCOCC2)NC(=O)CSC[C@@H](C(=O)N[C@@H](CCN)C(=O)NCCCCCCCCCCCCC(=O)O)NC(=O)[C@H](CO)NC(=O)[C@H](C(C)(C)O)NC(=O)[C@H](CC2CCCCC2)NC(=O)[C@H](CCN)NC1=O [Example 1152] ({CH2CO}-[Ala(morpholin-4-yl)]Y(Carboxymethyl)D[Phe(3-CF3)][Phe(4-COOH)][Bip]Q[NMeA][dL][Dab][Cha][Val(3-OH)]SC[Dab]-{NH(CH2)12COOH}; thioether N-14)
5 | 9.7 | CC(C)C[C@@H]1NC(=O)[C@H](Cc2c[nH]c3ccccc23)NC(=O)[C@H](CC(=O)O)NC(=O)[C@H](Cc2ccc(C(=O)O)cc2)NC(=O)[C@H](Cc2ccc(OCC(=O)O)cc2)NC(=O)CSC[C@@H](C(=O)NCCOCCOCC(=O)NCCCCCCCCCCC(=O)O)NC(=O)[C@H](CO)NC(=O)[C@H](C(C)C)NC(=O)[C@H](CC2CCCCC2)NC(=O)[C@H](CCN)NC(=O)[C@@H](CC(C)C)NC(=O)[C@H](C)N(C)C(=O)[C@H](C(C)C)NC(=O)[C@H](Cc2ccc(-c3ccccc3)cc2)NC1=O [Example 2225] ({CH2CO}-Y(Carboxymethyl)[Phe(4-COOH)]DWL[Bip]V[NMeA][dL][Dab][Cha]VSC[AEEA][Aun]-OH; thioether N-14)
6 | 14.3 | CC(C)C[C@@H]1NC(=O)[C@H](Cc2c[nH]c3ccccc23)NC(=O)[C@H](CC(=O)O)NC(=O)[C@H](Cc2ccc(C(=O)O)cc2)NC(=O)[C@H](Cc2ccc(OCC(=O)O)cc2)NC(=O)CSC[C@@H](C(=O)N[C@@H](CCCN)C(=O)NCCOCCOCC(=O)NCCCCCCCCCCC(=O)O)NC(=O)[C@H](CCCCN)NC(=O)[C@H](C(C)C)NC(=O)[C@H](CC2CCCCC2)NC(=O)[C@H](CC(N)=O)NC(=O)[C@@H](CC(C)C)NC(=O)[C@H](C)N(C)C(=O)[C@H](C(C)C)NC(=O)[C@H](Cc2ccc(-c3ccccc3)cc2)NC1=O [Example 2145] ({CH2CO}-Y(Carboxymethyl)[Phe(4-COOH)]DWL[Bip]V[NMeA][dL]N[Cha]VKC[Orn][AEEA][Aun]-OH; thioether N-14)
7 | 16.9 | Cc1cccc(C[C@@H]2NC(=O)[C@H](CC(=O)O)NC(=O)[C@H](Cc3ccc(C(=O)O)cc3)NC(=O)[C@H](Cc3cccs3)NC(=O)CSC[C@@H](C(=O)N[C@@H](CCN)C(=O)NCCCCCCCCCCC(=O)O)NC(=O)[C@H](CO)NC(=O)[C@H](C(C)(C)O)NC(=O)[C@H](CC3CCCCC3)NC(=O)[C@H](CCN)NC(=O)[C@@H](CC(C)C)NC(=O)[C@H](C)N(C)C(=O)[C@H](Cc3ccc(OCC(=O)O)cc3)NC(=O)[C@H](Cc3ccc(-c4ccccc4)cc3)NC(=O)[C@H](Cc3ccc(OCC(=O)O)cc3)NC2=O)c1 [Example 1284] ({CH2CO}-[2Thi][Phe(4-COOH)]D[Phe(3-Me)]Y(Carboxymethyl)[Bip]Y(Carboxymethyl)[NMeA][dL][Dab][Cha][Val(3-OH)]SC[Dab][Aun]-OH; thioether N-14)
8 | 5.6 | Cc1cccc(C[C@@H]2NC(=O)[C@H](CC(=O)O)NC(=O)[C@H](Cc3ccc(OCC(=O)O)cc3)NC(=O)[C@H](CCCNC(=N)N)NC(=O)CSC[C@@H](C(=O)N[C@@H](CCN)C(=O)NCCCCCCCCCCC(=O)O)NC(=O)[C@H](CCO)NC(=O)[C@H](C(C)C)NC(=O)[C@H](CC3CCCCC3)NC(=O)[C@H](CCN)NC(=O)[C@@H](CC(C)C)NC(=O)[C@H](C)N(C)C(=O)[C@H](Cc3ccc(OCC(=O)O)cc3)NC(=O)[C@H](Cc3ccc(-c4ccccc4)cc3)NC(=O)[C@H](Cc3ccc(C(=O)O)cc3)NC2=O)c1 [Example 2350] ({CH2CO}-RY(Carboxymethyl)D[Phe(3-Me)][Phe(4-COOH)][Bip]Y(Carboxymethyl)[NMeA][dL][Dab][Cha]V[hSer]C[Dab][Aun]-OH; thioether N-14)
9 | 12.8 | CC(C)C[C@@H]1NC(=O)[C@H](Cc2c[nH]c3ccccc23)NC(=O)[C@H](CC(=O)O)NC(=O)[C@H](Cc2ccc(C(=O)O)cc2)NC(=O)[C@H](Cc2ccc(OCC(=O)O)cc2)NC(=O)CSC[C@@H](C(=O)NCC(=O)N[C@@H](CCCCN)C(=O)NCCCCCCCCCCC(=O)O)NC(=O)[C@H](CO)NC(=O)[C@H](C(C)C)NC(=O)[C@H](CC2CCCCC2)NC(=O)[C@H](CCN)NC(=O)[C@@H](CC(C)C)NC(=O)[C@H](C)N(C)C(=O)[C@H](C(C)C)NC(=O)[C@H](Cc2ccc(-c3ccccc3)cc2)NC1=O [Example 1039] ({CH2CO}-Y(Carboxymethyl)[Phe(4-COOH)]DWL[Bip]V[NMeA][dL][Dab][Cha]VSCGK[Aun]-OH; thioether N-14)

Same assay, conditions: PE-labeled PD-L1-Ig 20 nM final, Jurkat-hPD-1 cells; read-out: Jurkat HPD1 PDL1 IC50

Row | IC50 [nM] | Compound
10 | 54.8 | Cc1cccc(C[C@@H]2NC(=O)[C@H](CC(=O)O)NC(=O)[C@H](Cc3ccc(OCC(=O)O)cc3)NC(=O)[C@H](Cc3ccncc3)NC(=O)CSC[C@@H](C(=O)N[C@@H](CCN)C(=O)NCCCCCCCCCCC(=O)O)NC(=O)[C@H](CO)NC(=O)[C@H](C(C)(C)O)NC(=O)[C@H](CC3CCCCC3)NC(=O)[C@H](Cc3c[nH]cn3)NC(=O)[C@@H](CC(C)C)NC(=O)[C@H](C)N(C)C(=O)[C@H](Cc3ccc(OCC(=O)O)cc3)NC(=O)[C@H](Cc3ccc(-c4ccccc4)cc3)NC(=O)[C@H](Cc3ccc(OCC(=O)O)cc3)NC2=O)c1 [Example 2466] ({CH2CO}-[4Pal]Y(Carboxymethyl)D[Phe(3-Me)]Y(Carboxymethyl)[Bip]Y(Carboxymethyl)[NMeA][dL]H[Cha][Val(3-OH)]SC[Dab][Aun]-OH; thioether N-14)
11 | 37.5 | CCC[C@@H]1NC(=O)[C@H](C(C)(C)O)NC(=O)[C@H](CC2CCCCC2)NC(=O)[C@H](CCN)NC(=O)[C@@H](CC(C)C)NC(=O)[C@H](C)N(C)C(=O)[C@H](Cc2ccc(C(=O)O)cc2)NC(=O)[C@H](Cc2ccc(-c3ccccc3)cc2)NC(=O)[C@H](Cc2ccc(C(=O)O)cc2)NC(=O)[C@H](Cc2cccc(C)c2)NC(=O)[C@H](CC(=O)O)NC(=O)[C@H](Cc2ccc(C(=O)O)cc2)NC(=O)[C@H](Cc2ccc(C(F)(F)F)cc2)NC(=O)CSC[C@@H](C(=O)N[C@@H](CCN)C(=O)NCCCCCCCCCCC(=O)O)NC1=O [Example 2583] ({CH2CO}-[Phe(4-CF3)][Phe(4-COOH)]D[Phe(3-Me)][Phe(4-COOH)][Bip][Phe(4-COOH)][NMeA][dL][Dab][Cha][Val(3-OH)][Nva]C[Dab][Aun]-OH; thioether N-14)
12 | 32 | CCCC[C@H]1C(=O)N[C@@H](Cc2ccc(C(=O)O)cc2)C(=O)N[C@@H](CC(=O)O)C(=O)N[C@@H](Cc2cccc(C)c2)C(=O)N[C@@H](Cc2ccc(C(=O)O)cc2)C(=O)N[C@@H](Cc2ccc(-c3ccccc3)cc2)C(=O)N[C@@H](Cc2ccc(C(=O)O)cc2)C(=O)N(C)[C@@H](C)C(=O)N[C@H](CC(C)C)C(=O)N[C@@H](CCN)C(=O)N[C@@H](CC2CCCCC2)C(=O)N[C@@H](C(C)C)C(=O)N[C@@H](CCC(=O)O)C(=O)N[C@H](C(=O)N[C@@H](CCN)C(=O)NCCOCCOCC(=O)NCCCCCCCCCCC(=O)O)CSCC(=O)N1C [Example 2543] ({CH2CO}-[NMeNle][Phe(4-COOH)]D[Phe(3-Me)][Phe(4-COOH)][Bip][Phe(4-COOH)][NMeA][dL][Dab][Cha]VEC[Dab][AEEA][Aun]-OH; thioether N-14)
